According to patent US10259777B2, “(E)-3-(3,4-dihydroxyphenyl)-N-(prop-2-yn-1-yl)acrylamide for treatment of neurodegenerative diseases” (THE UNIVERSITY OF HONG KONG, priority 2015, dated 2019):

Tests used:
PC12 cells = assay: NGF-induced neurite outgrowth (neuritogenic activity) in PC12 cells; format: cell-based, rat; settings: 72 hours
Method: The neuritogenic potential of PACA was verified by the induction of the main neuronal biomarkers (i.g., β3-tubulin, MAP-2 and GAP43). (A) Representative images for the potentiation of NGF-induced neurite outgrowth in PC12 cells by PACA. PC12 cells were treated with NGF (2 ng/ml) and PACA, alone or in combination. The cells were stained with neurite outgrowth staining kit and imaged under a fluorescence microscope. (B) Quantification of neurite outgrowth in Panel A. Following the staining of neurites, the cells bearing neurites longer than 20 μm were counted under a fluorescence microscope. **, p<0.01 (sample vs NGF alone). (C) Western blot analysis of neuronal biomarkers. The cells were treated with NGF and PACA, alone or in combination, whereas the control cells were treated with vehicle for 72 hours. The cellular proteins were extracted and detected by Western blot analysis for the expression of neuron marker. GAPDH was detected as the control of protein loading.
The neuritogenic activity of PACA was evaluated in rat dopaminergic PC12 cells. PC12 cells were treated with NGF (2 ng/mL) alone or in combination with PACA at the concentrations of 5, 10, 20 μM for 72 hours. The cells were stained by a neurite outgrowth kit, and subsequently analyzed for neurites (>20 μm) under a fluorescence microscope. […] Following the treatment with PACA and NGF, alone or in combination, PC12 cells were analyzed by Western blotting for the expression of neuronal biomarkers (i.g., β3-tubulin, MAP2 and GAP-43).

[1] = system: primary rat midbrain neurons; assay: 6-OHDA-induced neurotoxicity in primary midbrain neurons, MTT and Hoechst 33342/PI staining; format: cell-based; settings: 6-OHDA with or without PACA, MTT

C#CCNC(=O)/C=C/c1ccc(O)c(O)c1 [PACA, (E)-3-(3,4-dihydroxyphenyl)-N-(prop-2-yn-1-yl)acrylamide]
neurite outgrowth by compound alone (PC12 cells; PACA 20 μM alone): did not induce neurite outgrowth
increase in number of neurite-bearing cells relative to NGF alone (PC12 cells; PACA 20 μM and NGF 2 ng/mL in combination): ~6 fold
potentiation of NGF-induced neurite outgrowth (PC12 cells; PACA 5, 10, 20 μM with NGF 2 ng/mL, neurites >20 μm, compared with NGF alone): significantly potentiated NGF-induced neurite outgrowth in a concentration-dependent manner
6-OHDA neurotoxicity in primary rat midbrain neurons [1]: attenuated 6-hydroxydopamine (6-OHDA) neurotoxicity
